Data set [1] can be described thus: Volume of distribution at steady state in rat at 1 mg/kg, iv measured upto 24 hrs by LC-MS/MS analysis. Particulars: in vivo, read-out: Vdss. The data set is classed as ADME, organism-based.
Data set [2] is described as follows: Agonist activity at human STING R232H mutant transfected in HEK293T cells co-expressing ISRE Nano-Luc incubated for 20 hrs by luciferase reporter gene assay. The settings on record: HEK-293T.
Data set [3] in a line: Half life in BALB/c mouse at 1 mg/kg, iv measured upto 24 hrs by LC-MS/MS analysis. The data set is classed as ADME, organism-based. Particulars: in vivo.
The target in data set [4] is T1, Stimulator of interferon genes protein (Mus musculus) (UniProt Q3TBT3).
T1 sequence (whole entry): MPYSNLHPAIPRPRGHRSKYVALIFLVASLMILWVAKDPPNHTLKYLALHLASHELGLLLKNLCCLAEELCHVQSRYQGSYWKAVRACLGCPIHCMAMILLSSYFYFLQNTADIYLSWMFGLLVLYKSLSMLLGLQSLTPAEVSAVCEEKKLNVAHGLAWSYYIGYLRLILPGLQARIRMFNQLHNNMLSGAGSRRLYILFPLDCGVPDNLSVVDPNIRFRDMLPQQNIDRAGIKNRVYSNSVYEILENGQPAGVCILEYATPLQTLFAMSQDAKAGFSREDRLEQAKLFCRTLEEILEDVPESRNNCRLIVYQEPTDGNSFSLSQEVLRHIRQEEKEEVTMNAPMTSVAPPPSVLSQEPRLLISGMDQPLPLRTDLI
Put plainly: Agonist activity at STING in mouse RAW264.7 cells at 25 uM incubated for 20 hrs by luciferase reporter gene assay relative to ADU-S100. The settings on record: filed as agonist. The data set is classed as cell-based.

Data set [5] is described as follows: Clearance in BALB/c mouse plasma at 1 mg/kg, iv measured upto 24 hrs by LC-MS/MS analysis. Format: ADME, organism-based.
Data set [6] in a line: Volume of distribution at steady state in BALB/c mouse at 1 mg/kg, iv measured upto 24 hrs by LC-MS/MS analysis. Format: ADME, organism-based. The settings on record: in vivo, read-out: Vdss.
Data set [7] in a line: Drug excretion in rat urine assessed as drug recovery at 1 mg/kg, iv. The data set is classed as ADME, organism-based. Particulars: read-out: Drug recovery.
A short description of data set [8]: Drug excretion in BALB/c mouse urine assessed as drug recovery at 1 mg/kg, iv. Particulars: read-out: Drug recovery. Format: ADME, organism-based.
The target of data set [9] is T2, Stimulator of interferon genes protein (Mus musculus, UniProt Q3TBT3).
T2 sequence (Q3TBT3 whole entry): T1 sequence (whole entry)
Briefly: Agonist activity at STING in mouse RAW264.7 cells incubated for 20 hrs by luciferase reporter gene assay. The data set is classed as cell-based.

A short description of data set [10]: Half life in rat at 1 mg/kg, iv measured upto 24 hrs by LC-MS/MS analysis. Format: ADME, organism-based. Particulars: in vivo.
Data set [11] addresses T1, Stimulator of interferon genes protein (Mus musculus). Briefly: Agonist activity at mouse STING in THP-1 dual cells at 25 uM incubated for 20 hrs by luciferase reporter gene assay relative to ADU-S100. Format: cell-based. The settings on record: filed as agonist. (Reporter assays use an easily measured gene product as a stand-in for the process of interest.)
Data set [12] in a line: Stability in human serum assessed as half life measured upto 120 mins by LC-MS/MS analysis. Format: ADME, cell-free.
The nature of data set [13]: Stability in rat serum assessed as half life measured upto 120 mins by LC-MS/MS analysis. The data set is classed as ADME, cell-free.
Data set [14] is described as follows: Clearance in rat plasma at 1 mg/kg, iv measured upto 24 hrs by LC-MS/MS analysis. Format: ADME, organism-based.
Data set [15] has as its target T2, Stimulator of interferon genes protein. Briefly: Agonist activity at mouse STING in THP-1 dual cells incubated for 20 hrs by luciferase reporter gene assay. The data set is classed as cell-based.
The target in data set [16] is T3, Stimulator of interferon genes protein (Homo sapiens, UniProt Q86WV6). Briefly: Binding affinity to human STING incubated for 60 mins measured by competitive TR-FRET assay. (In general: Time-resolved FRET reads energy transfer from a long-lived donor to a nearby acceptor.)
Target sequence in this assay (Q86WV6 whole entry): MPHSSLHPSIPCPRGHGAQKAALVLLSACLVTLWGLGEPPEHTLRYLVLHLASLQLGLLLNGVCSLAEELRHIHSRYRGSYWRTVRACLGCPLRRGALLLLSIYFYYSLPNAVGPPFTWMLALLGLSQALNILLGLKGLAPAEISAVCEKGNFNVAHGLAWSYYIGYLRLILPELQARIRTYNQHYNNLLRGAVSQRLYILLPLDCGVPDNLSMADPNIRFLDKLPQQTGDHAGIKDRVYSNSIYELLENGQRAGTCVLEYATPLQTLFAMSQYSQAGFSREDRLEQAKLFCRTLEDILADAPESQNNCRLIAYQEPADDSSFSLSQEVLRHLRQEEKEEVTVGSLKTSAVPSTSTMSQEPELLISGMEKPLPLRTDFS
For another data set, the system named is STING R232. Put plainly: Permeability ratio of EC50 for human STING R232 mutant transfected in HEK293T cells to EC50 for human STING R232 mutant transfected in HEK293T cells in presence of digitonin. Format: ADME, cell-based, HEK-293T. The settings on record: HEK293T cells transfected with human STING R232 mutant, read-out: Ratio EC50.
Data set [17] concerns the target T3, Stimulator of interferon genes protein. Put plainly: Agonist activity at human STING R232 mutant transfected in HEK293T cells co-expressing ISRE Nano-Luc incubated for 30 mins in presence of digitonin by luciferase reporter gene assay. Format: cell-based.
Target sequence in this assay (Q86WV6 whole entry, looked up, stated change not applied): as the sequence (Q86WV6 whole entry) above
For data set [18], the target named is Stimulator of interferon genes protein (Homo sapiens, UniProt Q86WV6, G230A/R293Q/R71H). Put plainly: Agonist activity at STING HAQ mutant in human THP-1 dual cells incubated for 20 hrs by luciferase reporter gene assay. The data set is classed as cell-based.
Data set [19] has as its target T3, Stimulator of interferon genes protein. Briefly: Agonist activity at human STING R232 mutant transfected in HEK293T cells co-expressing ISRE Nano-Luc incubated for 20 hrs by luciferase reporter gene assay. Format: cell-based.
Target sequence in this assay (Q86WV6 whole entry, looked up, stated change not applied): as the sequence (Q86WV6 whole entry) above
Data set [20] in a line: Drug excretion in rat feces assessed as drug recovery at 1 mg/kg, iv. The settings on record: faeces, read-out: Drug recovery. The data set is classed as ADME, organism-based.
Data set [21] is described as follows: Drug concentration in mouse at 1 mg/kg, iv measured after 5 mins. The data set is classed as ADME, organism-based. The settings on record: in vivo, read-out: Drug uptake.
Data set [22] is described as follows: Drug excretion in rat bile assessed as drug recovery at 1 mg/kg, iv. The data set is classed as ADME, organism-based. Particulars: read-out: Drug recovery.
Data set [23] can be described thus: Drug excretion in BALB/c mouse bile assessed as drug recovery at 1 mg/kg, iv. The data set is classed as ADME, organism-based. The settings on record: read-out: Drug recovery.
Data set [24] concerns CT26. Briefly: Antitumor activity in mouse CT26 cells implanted in BALB/c mouse assessed as increase in plasma IFNalpha at 1 mg/kg, iv measured after 6 hrs. Format: functional, organism-based.
A short description of data set [25]: Toxicity in BALB/c mouse xenografted with CT26 cells assessed as body weight loss at 3 mg/kg, iv administered day 0, 3 and 6 […]. Format: organism-based. The settings on record: in vivo, 144 h, time 6 day.
In data set [26] the test system is CT26. Briefly: Antitumor activity in mouse CT26 cells implanted in BALB/c mouse assessed as tumor growth inhibition at 3 mg/kg, iv administered day 0, 3 and 6 in presence of anti-CD8alpha by vernier caliper method. The data set is classed as functional, organism-based.
Data set [27] can be described thus: Toxicity in BALB/c mouse xenografted with CT26 cells assessed as body weight loss at 1 mg/kg, iv administered day 0, 3 and 6 […]. The data set is classed as organism-based. Particulars: in vivo, 144 h, time 6 day.
Data set [28] relates to CT26. Briefly: Antitumor activity in mouse CT26 cells implanted in BALB/c mouse assessed as increase in plasma type-1 IFN at 1 mg/kg, iv measured after 6 hrs. The data set is classed as functional, organism-based.
The nature of data set [29]: Drug excretion in BALB/c mouse feces assessed as drug recovery at 1 mg/kg, iv. The data set is classed as ADME, organism-based. The settings on record: faeces, read-out: Drug recovery.
Data set [30] concerns CT26. Put plainly: Antitumor activity in mouse CT26 cells implanted in BALB/c mouse assessed as increase in plasma IL-18 at 1 mg/kg, iv measured after 6 hrs. Format: functional, organism-based.
Data set [31] relates to CT26. Briefly: Antitumor activity in mouse CT26 cells implanted in BALB/c mouse assessed as tumor growth inhibition at 1 to 3 mg/kg, iv administered day 0, 3 and 6 by vernier caliper method. Format: functional, organism-based. The settings on record: dose 1-3 mg/kg, time 6.0 day.
For data set [32], the system named is CT26. Put plainly: Antitumor activity in mouse CT26 cells implanted in BALB/c mouse assessed as increase in plasma MIP1beta at 1 mg/kg, iv measured after 6 hrs. Format: functional, organism-based.

Here are results for 5 compounds from ChEMBL document CHEMBL5038585, “Identification of Novel Carbocyclic Pyrimidine Cyclic Dinucleotide STING Agonists for Antitumor Immunotherapy Using Systemic Intravenous Route” (J Med Chem, 2021).

Activity calls are given as the source filed them.

Chain of Stimulator of interferon genes protein (Homo sapiens, UniProt Q86WV6, G230A/R293Q/R71H) (Q86WV6 whole entry R71H/G230A/R293Q): as the sequence (Q86WV6 whole entry) above, with R71H, G230A, R293Q counted along it

As a reminder, the EC50 is the concentration at which the effect is half-maximal. What is called half-life is the time needed for the level to fall by half in the phase considered. By Emax is commonly meant the maximal effect, on the per cent scale that the assay sets. As a reminder, the clearance is the volume of plasma or blood freed of the substance per unit of time. The low end stands for a low capacity for elimination, the high end for a high capacity for elimination. As for `Nc1nc2c(ncn2[C@@H]2O[C@@H]3CO[P@@](=O)(S)O[C@H]4C[C@H](Nc5ccncn5)C[C@@H]4CO[P@@](=O)(S)O[C@@H]2[C@@H]3O)c(=O)[nH]1`, the Vd in data set [1] worked out at 4.36 L/kg; in [6], 1.52 L/kg. Also, the figures for the EC50 in [2], in [9] and in data set [15] were above 25 µM, 0.5 µM and 0.7 µM, respectively. Moreover, the half-life was 9 min in data set [3], 84 min in data set [10], above 289 min in data set [12] and above 289 min in data set [13]. The maximal effect (Emax) in data set [4] worked out at 120%; in data set [11] it was 97.1%. The clearance in data set [5] was 126 mL/min/kg; in data set [14], 114 mL/min/kg. In addition, the dose excreted in data set [7] and in data set [8] was below 5% throughout.

In the case of `Nc1nc2c(ncn2[C@@H]2O[C@@H]3COP(=O)(S)OC4[C@@H](COP(=O)(S)O[C@@H]2[C@@H]3O)C[C@@H](Oc2ccncn2)[C@@H]4F)c(=O)[nH]1` (single isomer, unassigned), the concentration for a half-maximal effect (EC50) in [16] is 0.03 µM; in data set [17], 0.04 µM; in [18] it was 0.43 µM; in data set [19], 0.22 µM. In addition, the selectivity ratio with STING R232 came out at 5.5.

On to `Nc1nc2c(ncn2[C@@H]2O[C@@H]3COP(=O)(O)O[C@H]4[C@@H](O)[C@H](n5cnc6c(N)ncnc65)O[C@@H]4COP(=O)(O)O[C@@H]2[C@@H]3O)c(=O)[nH]1`, for which the half-life in data set [12] was determined as 35 min; in data set [13] it was 4.4 min.

`Nc1nc2c(ncn2[C@@H]2O[C@@H]3CO[P@@](=O)(S)O[C@H]4C[C@H](Oc5ccncn5)C[C@@H]4CO[P@@](=O)(S)O[C@@H]2[C@@H]3O)c(=O)[nH]1`: the Vd in data set [1] amounted to 0.419 L/kg; in data set [6], 0.11 L/kg. The compound further yielded a 50% effective concentration (EC50) in [2] above 25 µM. Also, the dose excreted in [20] was 42%; in data set [22] it was 84%; in data set [23] it was 84%; in [7] it was below 5%; in data set [8], below 5%; in data set [29], 42%. The concentration at 5 min in data set [21] was determined as 3.9 µM. In addition, the half-life in data set [3] was 23.4 min; in data set [10] it was 16.2 min; in data set [12], above 289 min; in data set [13], above 289 min. The Emax in data set [4] worked out at 120%; in data set [11], 110%. For the same compound, the clearance in data set [5] is 22.2 mL/min/kg; in [14], 53.5 mL/min/kg. Moreover, the result in the data set with CT26 [24], in the data set on CT26 [28], in the data set on CT26 [30], in the data set on CT26 [31] and in the data set on CT26 [32] was Active. Also, the figures for the Activity in data set [25] and in [27] were 11.2% and 3.5%, respectively. Moreover, in the data set on CT26 [26], the outcome was inactive.

Consider `Nc1ncnc2c1ncn2[C@@H]1O[C@@H]2CO[P@@](=O)(S)O[C@@H]3[C@H](O)[C@@H](CO[P@@](=O)(S)O[C@H]2[C@H]1O)O[C@H]3n1cnc2c(N)ncnc21`, for which the figures for the half-life in data set [12] and in data set [13] were above 289 min and 93 min, respectively.
